From the NIST ThermoML archive (doi:10.1016/j.fluid.2016.06.011)
± gives the expanded uncertainty stated by the source.

Settings: Liquid; for mass density: 101.33 kPa, Vibrating tube method; for vapor or sublimation pressure: Closed cell (Static) method

OCC(F)(F)C(F)(F)F [2,2,3,3,3-pentafluoropropanol]
mass density (278.16 K): 1542.78 ± 2.2 kg/m3 | mass density (279.15 K): 1540.99 ± 2.2 kg/m3 | mass density (280.15 K): 1539.17 ± 2.2 kg/m3 | mass density (281.15 K): 1537.35 ± 2.2 kg/m3 | mass density (282.15 K): 1535.52 ± 2.1 kg/m3 | mass density (283.15 K): 1533.69 ± 2.1 kg/m3 | mass density (284.15 K): 1531.86 ± 2.1 kg/m3 | mass density (285.15 K): 1530.02 ± 2.1 kg/m3 | mass density (286.15 K): 1528.18 ± 2.1 kg/m3 | mass density (287.15 K): 1526.33 ± 2.1 kg/m3 | mass density (288.15 K): 1524.47 ± 2.1 kg/m3 | mass density (289.15 K): 1522.62 ± 2.1 kg/m3 | mass density (290.15 K): 1520.75 ± 2.1 kg/m3 | mass density (291.15 K): 1518.88 ± 2.1 kg/m3 | mass density (292.15 K): 1517 ± 2.1 kg/m3 | mass density (293.15 K): 1515.12 ± 2.1 kg/m3 | mass density (294.15 K): 1513.23 ± 2.1 kg/m3 | mass density (295.15 K): 1511.35 ± 2.1 kg/m3 | mass density (296.15 K): 1509.44 ± 2.1 kg/m3 | mass density (297.15 K): 1507.54 ± 2.1 kg/m3 | vapor or sublimation pressure (298.08 K): 6.205 ± 0.05 kPa | mass density (298.15 K): 1505.63 ± 2.1 kg/m3 | mass density (299.15 K): 1503.71 ± 2.1 kg/m3 | mass density (300.15 K): 1501.79 ± 2.1 kg/m3 | mass density (301.15 K): 1499.86 ± 2 kg/m3 | mass density (302.15 K): 1497.92 ± 2 kg/m3 | vapor or sublimation pressure (303.05 K): 8.416 ± 0.058 kPa | mass density (303.15 K): 1495.97 ± 2 kg/m3 | mass density (304.15 K): 1494.03 ± 2 kg/m3 | mass density (305.14 K): 1492.07 ± 2 kg/m3 | mass density (306.15 K): 1490.1 ± 2 kg/m3 | mass density (307.15 K): 1488.13 ± 2 kg/m3 | vapor or sublimation pressure (308.04 K): 11.31 ± 0.074 kPa | mass density (308.15 K): 1486.15 ± 2 kg/m3 | mass density (309.14 K): 1484.16 ± 2 kg/m3 | mass density (310.14 K): 1482.16 ± 2 kg/m3 | mass density (311.14 K): 1480.16 ± 2 kg/m3 | mass density (312.14 K): 1478.14 ± 2 kg/m3 | vapor or sublimation pressure (313.01 K): 14.97 ± 0.094 kPa | mass density (313.14 K): 1476.12 ± 2 kg/m3 | mass density (314.15 K): 1474.09 ± 2 kg/m3 | mass density (315.15 K): 1472.06 ± 2 kg/m3 | mass density (316.14 K): 1470.01 ± 2 kg/m3 | mass density (317.14 K): 1467.95 ± 2 kg/m3 | vapor or sublimation pressure (317.98 K): 19.59 ± 0.12 kPa | mass density (318.15 K): 1465.89 ± 2 kg/m3 | mass density (319.14 K): 1463.82 ± 1.9 kg/m3 | mass density (320.14 K): 1461.73 ± 1.9 kg/m3 | mass density (321.15 K): 1459.64 ± 1.9 kg/m3 | mass density (322.14 K): 1457.55 ± 1.9 kg/m3 | vapor or sublimation pressure (322.96 K): 25.41 ± 0.15 kPa | mass density (323.14 K): 1455.43 ± 1.9 kg/m3 | mass density (324.14 K): 1453.31 ± 1.9 kg/m3 | mass density (325.14 K): 1451.18 ± 1.9 kg/m3 | mass density (326.14 K): 1449.05 ± 1.9 kg/m3 | mass density (327.14 K): 1446.89 ± 1.9 kg/m3 | vapor or sublimation pressure (327.93 K): 32.49 ± 0.17 kPa | mass density (328.15 K): 1444.74 ± 1.9 kg/m3 | mass density (329.15 K): 1442.57 ± 1.9 kg/m3 | mass density (330.14 K): 1440.39 ± 1.9 kg/m3 | mass density (331.14 K): 1438.2 ± 1.9 kg/m3 | mass density (332.14 K): 1436 ± 1.9 kg/m3 | mass density (333.14 K): 1433.79 ± 1.9 kg/m3 | mass density (334.14 K): 1431.57 ± 1.9 kg/m3 | mass density (335.14 K): 1429.34 ± 1.9 kg/m3 | mass density (336.14 K): 1427.1 ± 1.8 kg/m3 | mass density (337.14 K): 1424.84 ± 1.8 kg/m3 | mass density (338.14 K): 1422.58 ± 1.8 kg/m3 | mass density (339.14 K): 1420.31 ± 1.8 kg/m3 | mass density (340.14 K): 1418.03 ± 1.8 kg/m3 | mass density (341.14 K): 1415.72 ± 1.8 kg/m3 | mass density (342.14 K): 1413.42 ± 1.8 kg/m3 | mass density (343.15 K): 1411.1 ± 1.8 kg/m3 | mass density (344.15 K): 1408.78 ± 1.8 kg/m3 | mass density (345.15 K): 1406.43 ± 1.8 kg/m3 | mass density (346.15 K): 1404.08 ± 1.8 kg/m3 | mass density (347.15 K): 1401.72 ± 1.8 kg/m3 | mass density (348.15 K): 1399.34 ± 1.8 kg/m3 | mass density (349.14 K): 1396.95 ± 1.8 kg/m3 | mass density (350.14 K): 1394.55 ± 1.8 kg/m3 | mass density (351.14 K): 1392.14 ± 1.8 kg/m3 | mass density (352.14 K): 1389.72 ± 1.7 kg/m3 | mass density (353.14 K): 1387.29 ± 1.7 kg/m3

OCC(F)(F)C(F)(F)C(F)(F)C(F)(F)C(F)(F)F [2,2,3,3,4,4,5,5,6,6,6-undecafluorohexan-1-ol]
vapor or sublimation pressure (278.14 K): 0.0688 ± 0.01 kPa | mass density (278.15 K): 1746.4 ± 2.8 kg/m3 | mass density (279.15 K): 1744.56 ± 2.8 kg/m3 | mass density (280.15 K): 1742.69 ± 2.8 kg/m3 | mass density (281.15 K): 1740.82 ± 2.8 kg/m3 | mass density (282.15 K): 1738.95 ± 2.8 kg/m3 | vapor or sublimation pressure (283.1 K): 0.1098 ± 0.01 kPa | mass density (283.15 K): 1737.07 ± 2.8 kg/m3 | mass density (284.15 K): 1735.19 ± 2.8 kg/m3 | mass density (285.15 K): 1733.3 ± 2.7 kg/m3 | mass density (286.15 K): 1731.41 ± 2.7 kg/m3 | mass density (287.15 K): 1729.52 ± 2.7 kg/m3 | vapor or sublimation pressure (288.08 K): 0.1712 ± 0.01 kPa | mass density (288.15 K): 1727.62 ± 2.7 kg/m3 | mass density (289.15 K): 1725.71 ± 2.7 kg/m3 | mass density (290.15 K): 1723.81 ± 2.7 kg/m3 | mass density (291.15 K): 1721.89 ± 2.7 kg/m3 | mass density (292.15 K): 1719.98 ± 2.7 kg/m3 | vapor or sublimation pressure (293.08 K): 0.2615 ± 0.011 kPa | mass density (293.15 K): 1718.06 ± 2.7 kg/m3 | mass density (294.15 K): 1716.13 ± 2.7 kg/m3 | mass density (295.15 K): 1714.2 ± 2.7 kg/m3 | mass density (296.15 K): 1712.27 ± 2.7 kg/m3 | mass density (297.15 K): 1710.32 ± 2.7 kg/m3 | vapor or sublimation pressure (298.13 K): 0.3944 ± 0.011 kPa | mass density (298.15 K): 1708.38 ± 2.7 kg/m3 | mass density (299.15 K): 1706.43 ± 2.7 kg/m3 | mass density (300.15 K): 1704.47 ± 2.7 kg/m3 | mass density (301.15 K): 1702.5 ± 2.6 kg/m3 | mass density (302.15 K): 1700.54 ± 2.6 kg/m3 | vapor or sublimation pressure (303.1 K): 0.5819 ± 0.012 kPa | mass density (303.15 K): 1698.57 ± 2.6 kg/m3 | mass density (304.15 K): 1696.59 ± 2.6 kg/m3 | mass density (305.15 K): 1694.61 ± 2.6 kg/m3 | mass density (306.15 K): 1692.62 ± 2.6 kg/m3 | mass density (307.15 K): 1690.62 ± 2.6 kg/m3 | vapor or sublimation pressure (308.06 K): 0.8405 ± 0.014 kPa | mass density (308.15 K): 1688.62 ± 2.6 kg/m3 | mass density (309.15 K): 1686.62 ± 2.6 kg/m3 | mass density (310.15 K): 1684.61 ± 2.6 kg/m3 | mass density (311.15 K): 1682.59 ± 2.6 kg/m3 | mass density (312.15 K): 1680.57 ± 2.6 kg/m3 | vapor or sublimation pressure (313.01 K): 1.205 ± 0.017 kPa | mass density (313.15 K): 1678.54 ± 2.6 kg/m3 | mass density (314.15 K): 1676.51 ± 2.6 kg/m3 | mass density (315.15 K): 1674.47 ± 2.6 kg/m3 | mass density (316.15 K): 1672.43 ± 2.6 kg/m3 | mass density (317.15 K): 1670.38 ± 2.5 kg/m3 | vapor or sublimation pressure (317.98 K): 1.708 ± 0.018 kPa | mass density (318.15 K): 1668.32 ± 2.5 kg/m3 | mass density (319.15 K): 1666.26 ± 2.5 kg/m3 | mass density (320.15 K): 1664.19 ± 2.5 kg/m3 | mass density (321.15 K): 1662.11 ± 2.5 kg/m3 | mass density (322.15 K): 1660.03 ± 2.5 kg/m3 | vapor or sublimation pressure (322.93 K): 2.349 ± 0.022 kPa | mass density (323.15 K): 1657.95 ± 2.5 kg/m3 | mass density (324.15 K): 1655.85 ± 2.5 kg/m3 | mass density (325.15 K): 1653.75 ± 2.5 kg/m3 | mass density (326.15 K): 1651.65 ± 2.5 kg/m3 | mass density (327.15 K): 1649.54 ± 2.5 kg/m3 | vapor or sublimation pressure (327.93 K): 3.25 ± 0.025 kPa | mass density (328.15 K): 1647.42 ± 2.5 kg/m3 | mass density (329.15 K): 1645.29 ± 2.5 kg/m3 | mass density (330.15 K): 1643.16 ± 2.5 kg/m3 | mass density (331.15 K): 1641.02 ± 2.5 kg/m3 | mass density (332.15 K): 1638.87 ± 2.5 kg/m3 | mass density (333.15 K): 1636.72 ± 2.4 kg/m3 | mass density (334.15 K): 1634.57 ± 2.4 kg/m3 | mass density (335.15 K): 1632.41 ± 2.4 kg/m3 | mass density (336.15 K): 1630.23 ± 2.4 kg/m3 | mass density (337.15 K): 1628.06 ± 2.4 kg/m3 | mass density (338.15 K): 1625.88 ± 2.4 kg/m3 | mass density (339.15 K): 1623.69 ± 2.4 kg/m3 | mass density (340.15 K): 1621.49 ± 2.4 kg/m3 | mass density (341.15 K): 1619.29 ± 2.4 kg/m3 | mass density (342.15 K): 1617.08 ± 2.4 kg/m3 | mass density (343.15 K): 1614.86 ± 2.4 kg/m3 | mass density (344.15 K): 1612.64 ± 2.4 kg/m3 | mass density (345.15 K): 1610.41 ± 2.4 kg/m3 | mass density (346.15 K): 1608.17 ± 2.4 kg/m3 | mass density (347.15 K): 1605.92 ± 2.4 kg/m3 | mass density (348.15 K): 1603.67 ± 2.3 kg/m3
